Data set [1] deals with ARPE-19 cells. The data set is described as follows: Lipid peroxidation status with C11-Bodipy581/591 probe (FACS) under oxidative conditions. The class given is cell-based. The note with it: ARPE-19, 50 µM for 24 h. The protocol:
ARPE-19 cells were plated into 2 cm^2 wells (2 × 10^5 cells/well) and cultured for 24 h to reach confluence before PUFA or lipophenol treatment. The cell cultures were treated with 1% FBSM containing tested compounds (deuterated DHAs or deuterated lipophenols) at 50 μM for 24 h and then rinsed with media before the incubation of 5 µM C11-Bodipy^581/591 for 30 min. Then, the cells were rinsed and treated with the different stressors, corresponding to different protocols. For chemical stress the cells were incubated with 400 µM of H2O2 during 24 h followed by FACS analysis. For photobleaching stress, the cells were exposed to a white LED lamp with an intensity of 5000 lux at room temperature during 1 h followed by the FACS analysis.
FACS was performed with the BD Accuri C6 Flow Cytometer and BD Accuri C6 Software for data acquisition (BD Biosciences). This flow cytometer is equipped with an excitation laser at 488 nm, and a fluorescence detector FL1 533/30 nm. Data were collected to 10,000 events for each sample using a flow rate of 35 µL/min. Parameters obtained for data analysis included: cell size from the forward scatter (FSC), granularity from the side scatter (SSC) and the green fluorescence of the stained cells with C11-Bodipy^581/591.
First the SSC-A versus FSC-A dot-plot was used to gate the cellular population and remove the cellular debris. Then the SSC-A versus SSC-H dot-plot was used to remove cell doublets in the previous gate to give a final gate. The cellular population in the last gate designed was plotted on count versus log green fluorescence to give the fluorescence mean intensity of FL1. The mean FL1 values were normalized to the cells only stained with C11-Bodipy^581/591.

Data set [2] relates to ARPE-19 cells. The data set is described as follows: Protection of lipophenols against all-trans-retinal (MTT cell viability). In kind it is cell-based. The note with it: ARPE-19, pretreatment 80 µM 1 h, trans-retinal 25 µM 4 h, MTT after 20 h. The protocol: (§1) Cell viability was determined by the MTT colorimetric assay. Cells were incubated for 2 h with MTT reagent (0.5 mg/mL). The absorbance at 570 nm and 655 nm of individual wells was measured using a microplate reader (BioRad 550). The percentage of viable cells was calculated as [(OD570 sample – OD655 sample)/(OD570 control – OD655 control)] × 100%.
ARPE-19 cells were plated into 96-well plates (3 × 10^4 cells/well) and cultured for 24 h to reach confluence before lipophenol treatment. Cells were treated with serum free medium containing lipophenols at different concentrations (0–80 μM) for 1 h. Then all-trans-retinal was added to a final concentration of 25 μM for 4 h (in DMF), before rinsing with medium. Cell viability was determined 16–20 h later, in triplicate samples, using the MTT colorimetric assay. Control cells were incubated with DMSO (0.2%) and DMF (0.14%). The data are expressed as the percentage of untreated cells (CTL, without all-trans-retinal).

In data set [3] the target is T1, 15-sLOX (Glycine max, UniProt P08170).
T1 sequence (P08170 1-839): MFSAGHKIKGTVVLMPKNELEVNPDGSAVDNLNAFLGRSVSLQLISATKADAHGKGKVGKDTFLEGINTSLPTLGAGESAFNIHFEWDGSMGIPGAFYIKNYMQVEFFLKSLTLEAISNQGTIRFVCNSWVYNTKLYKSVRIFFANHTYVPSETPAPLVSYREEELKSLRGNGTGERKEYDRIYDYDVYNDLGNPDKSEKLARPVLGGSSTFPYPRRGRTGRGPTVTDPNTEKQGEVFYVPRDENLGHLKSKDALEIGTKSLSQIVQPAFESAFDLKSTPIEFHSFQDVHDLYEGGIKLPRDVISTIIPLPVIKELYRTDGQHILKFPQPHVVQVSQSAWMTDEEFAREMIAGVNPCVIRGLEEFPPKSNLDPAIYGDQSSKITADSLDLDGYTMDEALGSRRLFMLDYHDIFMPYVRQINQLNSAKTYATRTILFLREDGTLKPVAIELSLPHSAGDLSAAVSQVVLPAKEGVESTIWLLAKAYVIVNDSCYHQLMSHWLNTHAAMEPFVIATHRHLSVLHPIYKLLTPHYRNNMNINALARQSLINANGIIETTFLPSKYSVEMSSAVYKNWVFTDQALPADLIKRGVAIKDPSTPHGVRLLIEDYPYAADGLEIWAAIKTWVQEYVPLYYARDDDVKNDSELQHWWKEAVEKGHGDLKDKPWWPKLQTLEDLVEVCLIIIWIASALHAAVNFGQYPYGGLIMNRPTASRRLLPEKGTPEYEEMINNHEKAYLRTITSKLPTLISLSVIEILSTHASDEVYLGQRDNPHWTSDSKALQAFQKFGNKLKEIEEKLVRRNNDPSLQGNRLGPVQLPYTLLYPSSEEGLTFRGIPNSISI
The experiment in a line: Kinetics parameters of 15s-LOX (UV 270 nm, Michaelis-Menten). The class given is biochemical, Glycine max (soybean). The protocol:
The activity of 15-sLOX was monitored on a Beckman Coulter DU730 Life Sciences UV-visible spectrometer at a wavelength of 270 nm monitoring the conjugated triene structure in the dihydroxylation products. For the measurements a reaction mixture of DHA or deuterated DHA (0.02 mM; 0.04 mM; 0.1 mM and 0.2 mM) was prepared in 750 µL sodium borate buffer (50 mM, pH 9) by ultrasonification for 10 s. The reaction was subsequently initiated by the addition of 10 µL 15-sLOX (4 mg/mL) to make a total volume of 760 µL in a Hellma CEL2056 quartz cuvette with 1 cm path length (20 °C). The initial reaction rates (V(0)), derived from the recorded UV-absorbance using the law of Lambert-Beer (molar extinction coefficient = 40,000), were plotted against the respective DHA concentrations and fitted to Michaelis-Menten kinetics in GraphPad Prism 7.0. All V(0) values were determined in triplicate and the average of three independent experiments was plotted against the substrate concentrations to yield Michaelis-Menten kinetics.

Data set [4] concerns the target T1, 15-sLOX. The experiment in a line: LC-MS/MS of 15s-LOX oxidized samples (product profile). In kind it is biochemical, Glycine max (soybean). The note with it: 0.1 mM substrate, 30 min reaction, room temperature. The protocol:
In order to gain insights on the nature of the produced metabolites, LC-MS/MS analysis of the reaction products were carried out. To this end, the respective DHA variants (0.1 mM) were incubated in a 2 mL eppendorf tube with 10 µL 15-sLOX (4 mg/mL) in sodium borate buffer (50 mM, pH 9) for 30 min at room temperature and the reaction quenched by the addition of cold MeOH (760 µL). The hydroperoxides were reduced with the addition of aq. SnCl2 (50 µL, 5 mg/mL) and subsequently the mixture was centrifuged (16,100 ×g for 5 min). Water (2 mL) was added to the supernatant, followed by the dropwise addition of glacial acetic acid (40 µL). The products were purified by SPE using SepPak 200 mg C18 cartridges (3CC), according to published protocols. The methyl formate eluates were evaporated to dryness, dissolved in MeOH (0.5 mL) and stored at −80 °C until analysis. The resulting solution was diluted 1000 times with MeOH for LC-MS/MS measurements. To 120 µL water, 72 µL of MeOH, 4 µL of the diluted solution and 4 µL of an internal standard (15-HETE-d8, Leukotriene LTB4-d4 and DHA-d5) was added. The samples were loaded in a SIL-30AC autosampler and the analytes separated on a Kinetex 1.7 µm C18 100Å, 50 × 2.1 mm LC column as described. The detection of DHA metabolites was performed in selected ion monitoring mode using several traces in order to take the eventual loss of a deuterium atom into account. The following traces were used: m/z 327.2, 343.2, 359.2 and 375.2 for DHA and its metabolites, m/z 327.2, 328.2, 329.2, 344.2, 345.2, 360.2, 361.2, 376.2, 377.2 for D2-DHA, m/z 331.2, 345.3, 346.2, 361.2, 362.3, 363.2, 377.2, 378.2 and 379.2 for D4-DHA and m/z 337.2, 352.2, 353.2, 367.2, 368.2, 369.2, 383.2, 384.2 and 385.2 for D10-DHA. Tandem mass spectra were recorded as product ion scans. Quantification of the metabolites was done by calculating the area ratio between the analyte and the internal standard (DHA-d5 for non-hydroxylated, 15-HETE-d8 for mono-hydroxylated and LTB4-d4 for di-hydroxylated derivatives) using Multiquant version 3.0.2.

Data set [5] deals with ARPE-19 cells. The experiment in a line: cells. The class given is cell-based. The note with it: ARPE-19, H2O2 treatment 600 µM in 1% FBSM. The protocol: ARPE-19 cells were obtained from ATCC, and maintained in Dulbecco’s Modified Eagle’s Medium (DMEM)/Ham F12 (GIBCO) containing 10% (v/v) fetal bovine serum (FBS) and 1% (v/v) penicillin/streptomycin under a humidified (95%)/CO2 (5%) atmosphere at 37 °C. For splitting and experiments, cells were dissociated with 0.25% trypsin-EDTA, re-suspended in the culture medium and then plated at 1–3 × 10^5 cells/mL. Cells were cultured and used up to a maximum of 10 passages.
as §1
ARPE-19 cells were plated into 96-well plates (3 × 10^4 cells/well) and cultured for 24 h to reach confluence before DHA treatment. The cells were treated in medium with 1% FBS (1% FBSM), or with H2O2 prepared in medium with FBS (1%, v/v) to a final concentration of 600 μM. Cells were then treated with DHA, D2-DHA and D4-DHA, at different concentrations (0–80 μm) for 24 h. Control cells were incubated with DMSO (0.2%). After 4 h, cell viability was determined in triplicate using the MTT colorimetric assay. Results were expressed in percentage of viable cells normalized with control conditions in the absence of PUFA and H2O2 stress.
Sigmoidal doses-responses linked to the toxicity were obtained using GraphPad prism software, allowing to calculate IC50 values described as the concentration leading to 50% of cell viability.

Setting [6] is: serum starvation (1% FBSM) 48 h.

Take `[2H]C([2H])(C=CCC=CCC=CCC=CCC)C=CC([2H])([2H])C=CCCC(=O)Oc1cc(O)cc(OC(C)C)c1` [IP-D4-DHA, phloroglucinol-OiPr-O-(6,6,9,9-D4)-DHA]: the “lipid peroxidation status (C11-BODIPY fluorescence)” value in data set [1] (serum starvation (1% FBSM) 24 h) was “decreased lipid peroxidation compared to IP-DHA and IP-D2-DHA”; in data set [1] (setting [6]), “slight but significant decrease in lipid peroxidation”; in data set [1] (then H2O2 400 µM 24 h) it was “decreased the lipid peroxidation status relative to IP-DHA and IP-D2-DHA”; in data set [1] (then photobleaching (white light, 5000 lux, 1 h)) it was “reduction of lipid oxidation”. For the same compound, in data set [2], the “increase in cell viability against all-trans-retinal” value (“increase in cell viability” below) is reported as 47%.
Broadly, the Km is the concentration of substrate that gives half-maximal velocity. Regarding `CC/C=C\C/C=C\C/C=C\C/C=C\C/C=C\C/C=C\CCC(=O)O` [D10-DHA], in data set [3] (15s-LOX, substrate 0.02-0.2 mM, borate buffer pH 9, 20 °C, 270 nm), the Km is 3.27 µM.
As for `[2H]C([2H])(/C=C\CC)/C=C\C([2H])([2H])/C=C\C([2H])([2H])/C=C\C([2H])([2H])/C=C\C([2H])([2H])/C=C\CCC(=O)O` [D10-DHA], the “fold decrease in the Vmax value” in data set [3] (15s-LOX, compared with the other DHAs) is “more than 10 fold”. Moreover, the “15s-LOX activity for the double hydroxylation product” value in data set [3] (monitored at 270 nm) is “significantly reduced activity”. Moreover, in data set [4], the “pre-dominant product of 15-sLOX oxidation (LC-MS)” value is “vast excess obtained for 17S-HDHA”.
`CC/C=C\C/C=C\C/C=C\C/C=C\C/C=C\C/C=C\CCC(=O)Oc1cc(O)cc(OC(C)C)c1` [IP-DHA]: the “increase in cell viability” value in data set [2] was 42%.
As to `[2H]C([2H])(/C=C\C/C=C\C/C=C\C/C=C\C/C=C\CC)/C=C\CCC(=O)Oc1cc(O)cc(OC(C)C)c1` [IP-D2-DHA, phloroglucinol-OiPr-O-(6,6-D2)-DHA], the “lipid peroxidation status (C11-BODIPY fluorescence)” value in data set [1] (setting [6]) is “slight but significant decrease in lipid peroxidation”. In addition, the “increase in cell viability” value in data set [2] is on record as 52%.
As to `OO` [H2O2, Hydrogen peroxide, reference compound], the cell mortality in data set [5] was 60–70%.

The values above are taken from PMC6826779, “Bis-allylic Deuterated DHA Alleviates Oxidative Stress in Retinal Epithelial Cells” (Antioxidants, 2019).
